# According to the supplement of paper PMC10307832:
# How the values were obtained:
# Assay in all cases: relative viability (nuclei count vs DMSO), 5 days (fraction); higher = more cells survive
# Vemurafenib + Decitabine = compound: CCCS(=O)(=O)Nc1ccc(F)c(C(=O)c2c[nH]c3ncc(-c4ccc(Cl)cc4)cc23)c1F [Vemurafenib] + Nc1ncn([C@H]2C[C@H](O)[C@@H](CO)O2)c(=O)n1 [Decitabine] (partner 2 µM)
# Summary of the method: (§1)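 Lung cancer cell lines in 1536-well plates got either a single drug or a fixed anchor-drug dose together with five library-drug doses (not always all listed) in √10 steps, by pin tool, on the day after seeding. Nuclei were counted after 5 days, and relative viability is the treated-to-vehicle ratio of nuclei counts. Values are medians of duplicate plates.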
# OSI-027 + Trametinib = compound: COc1cccc2cc(-c3nc([C@H]4CC[C@H](C(=O)O)CC4)n4ncnc(N)c34)[nH]c12 [OSI-027] + CC(=O)Nc1cccc(-n2c(=O)n(C3CC3)c(=O)c3c(Nc4ccc(I)cc4F)n(C)c(=O)c(C)c32)c1 [Trametinib] (partner 0.02 µM)
# Summary of the method: as §1
# OSI-027 + Palbociclib = compound: COc1cccc2cc(-c3nc([C@H]4CC[C@H](C(=O)O)CC4)n4ncnc(N)c34)[nH]c12 [OSI-027] + CC(=O)c1c(C)c2cnc(Nc3ccc(N4CCNCC4)cn3)nc2n(C2CCCC2)c1=O [Palbociclib] (partner 0.5 µM)
# Summary of the method: as §1
# Alpelisib + Palbociclib = compound: Cc1nc(NC(=O)N2CCC[C@H]2C(N)=O)sc1-c1ccnc(C(C)(C)C(F)(F)F)c1 [Alpelisib] + CC(=O)c1c(C)c2cnc(Nc3ccc(N4CCNCC4)cn3)nc2n(C2CCCC2)c1=O [Palbociclib] (partner 0.5 µM)
# Summary of the method: as §1
Cell Line,relative viability (Vemurafenib + Decitabine; first compound 0.03162 µM),relative viability (Vemurafenib + Decitabine; first compound 0.1 µM),relative viability (Vemurafenib + Decitabine; first compound 0.3162 µM),relative viability (Vemurafenib + Decitabine; first compound 1 µM),relative viability (OSI-027 + Trametinib; first compound 0.01 µM),relative viability (OSI-027 + Trametinib; first compound 0.03162 µM),relative viability (OSI-027 + Trametinib; first compound 0.1 µM),relative viability (OSI-027 + Trametinib; first compound 0.3162 µM),relative viability (OSI-027 + Trametinib; first compound 1 µM),relative viability (OSI-027 + Palbociclib; first compound 0.01 µM),relative viability (OSI-027 + Palbociclib; first compound 0.03162 µM),relative viability (OSI-027 + Palbociclib; first compound 0.1 µM),relative viability (OSI-027 + Palbociclib; first compound 0.3162 µM),relative viability (OSI-027 + Palbociclib; first compound 1 µM),relative viability (Alpelisib + Palbociclib; first compound 0.04 µM),relative viability (Alpelisib + Palbociclib; first compound 0.1265 µM),relative viability (Alpelisib + Palbociclib; first compound 0.4 µM),relative viability (Alpelisib + Palbociclib; first compound 1.265 µM),relative viability (Alpelisib + Palbociclib; first compound 4 µM)
NCI-H1915,0.244,0.253,0.26,0.244,0.284,0.299,0.262,0.233,0.314,0.535,0.523,0.429,0.388,0.268,0.555,0.531,0.573,0.474,0.471
NCI-H1944,0.488,,0.45,0.456,0.379,0.399,0.405,0.355,0.298,0.336,0.3,0.327,0.234,0.205,0.303,0.302,0.345,0.241,0.221
NCI-H1975,0.419,0.418,0.345,0.32,0.278,0.386,0.3,0.294,0.264,0.601,0.578,0.549,0.598,0.359,0.628,0.552,0.597,0.323,0.319
NCI-H1993,0.513,,0.651,0.713,0.474,0.548,0.523,0.412,0.505,0.613,0.491,0.414,0.432,0.381,0.549,0.637,0.647,0.501,0.465
NCI-H2009,0.394,0.341,0.341,0.438,0.272,0.283,0.2,0.196,0.195,0.211,0.237,0.171,0.173,0.232,0.235,0.23,0.245,0.215,0.164
NCI-H2023,0.228,0.224,0.257,0.246,0.645,0.506,0.435,0.388,0.272,0.36,0.326,0.249,0.22,0.161,0.312,0.309,0.326,0.258,0.223
NCI-H2085,0.495,0.529,0.536,0.597,0.504,0.514,0.429,0.313,0.281,0.463,0.515,0.458,0.428,0.446,0.464,0.484,0.455,0.447,0.446
NCI-H2087,0.198,0.273,0.346,0.336,0.194,0.235,0.194,0.154,0.142,0.261,0.169,0.207,0.195,0.142,0.301,0.237,0.246,0.257,0.193
NCI-H2126,0.559,0.542,0.599,0.552,0.54,0.593,0.526,0.447,0.537,0.362,0.361,0.36,0.34,0.347,0.363,0.334,0.345,0.359,0.334
NCI-H2170,0.435,,0.441,0.455,1.02,0.901,0.807,0.746,0.267,0.407,0.382,0.329,0.302,0.201,0.351,0.337,0.36,0.246,0.21
NCI-H2342,0.705,0.702,0.773,0.706,0.802,0.816,0.724,0.687,0.556,0.51,0.503,0.492,0.443,0.48,0.57,0.509,0.518,0.467,0.414
NCI-H2347,0.588,0.538,0.562,0.613,0.29,0.25,0.268,0.278,0.205,0.41,0.386,0.392,0.358,0.392,0.417,0.45,0.407,0.474,0.423
NCI-H2405,0.668,0.678,,0.736,0.643,0.663,0.597,0.471,0.373,0.509,0.491,0.472,0.401,0.34,0.515,0.536,0.52,0.43,0.462
NCI-H3122,0.429,0.485,0.481,0.504,0.273,0.238,0.178,0.191,0.097,0.167,0.177,0.175,0.168,0.152,0.163,0.162,0.188,0.185,0.144
PC-3 [JPC-3],,,0.81,0.888,0.616,0.651,0.599,0.603,0.437,0.535,0.522,0.563,0.5,0.439,0.591,0.556,0.581,0.521,0.559
PC-14,0.223,,0.181,0.237,0.793,0.934,0.71,0.649,0.282,0.512,0.509,0.545,0.576,0.408,0.556,0.499,0.602,0.464,0.497
RERF-LC-KJ,0.639,0.678,0.632,0.716,0.709,0.832,0.815,0.667,0.406,1.07,0.957,0.99,0.817,0.457,1.1,1.03,1.16,0.759,0.928
SK-LU-1,0.638,0.588,0.504,0.56,0.458,0.491,0.457,0.334,0.327,0.373,0.381,0.394,0.302,0.268,0.398,0.372,0.386,0.326,0.377
SK-MES-1,0.384,0.334,0.38,0.386,0.531,0.523,0.478,0.483,0.394,0.294,0.322,0.286,0.275,0.274,0.361,0.307,0.313,0.254,0.3
SW 900,0.428,0.346,0.439,0.466,0.933,0.866,0.789,0.712,0.608,0.531,0.579,0.577,0.375,0.288,0.536,,0.706,0.483,0.49
SW 1573,0.386,0.442,0.484,0.452,0.711,0.543,0.491,0.409,0.411,0.388,0.389,0.356,0.333,0.216,0.409,0.401,0.366,0.201,0.284
